# Measured values: ChEMBL document CHEMBL5726833, “Heterocyclic compounds useful as pim kinase inhibitors” (2018)
# How the values were obtained:
# [1] = target: Serine/threonine-protein kinase pim-1 (Homo sapiens, UniProt P11309); assay: (§1) Enzyme Assay: Pim-1 and Pim-3 kinase assays—20 μL reactions were run in white 384 well polystyrene plates dotted with 0.8 μL compound/DMSO in the assay buffer (50 mM Tris, pH 7.5, 0.01% Tween-20, 5 mM mgCl2, 0.01% BSA, 5 mM DTT), containing 0.05 μM Biotin-labeled BAD peptide substrate (AnaSpec 62269), 1 mM ATP, and 2.5 pM (Pim-1, Invitrogen PV3503) or 1.25 pM (Pim-3, Millipore 14-738) enzyme for 1 h at 25° C. Reactions were stopped by addition of 10 μL STOP Buffer (150 mM Tris, pH=7.5, 150 mM NaCl, 75 mM EDTA, 0.01% Tween-20, 0.3% BSA,) supplemented with Phospho-Bad (Ser112) Antibody (Cell Signaling 9291) diluted 666-fold, and Streptavidin donor beads (PerkinElmer 6760002) along with Protein-A acceptor beads (PerkinElmer 6760137) at […] each. Supplementation of the STOP buffer with beads and stopping the reactions were done under reduced light. Prior to the stopping reactions STOP buffer with beads was preincubated for 1 h in the dark at room temperature. After stopping the reactions, plates were incubated for 1 h in the dark at room temperature before reading on a PHERAstar FS plate reader (BMG Labtech) under reduced light.
# [2] = target: Serine/threonine-protein kinase pim-3 (Homo sapiens, UniProt Q86V86); assay: as §1
# [3] = target: Serine/threonine-protein kinase pim-2 (Homo sapiens, UniProt Q9P1W9); assay: Kinase Assay: Pim-2 kinase assay—20 μL reactions were run in white 384 well polystyrene plates dotted with 0.8 μL compound/DMSO in the assay buffer (50 mM Tris, pH 7.5, 0.01% Tween-20, 5 mM mgCl2, 0.01% BSA, 5 mM DTT), containing 0.05 μM Fluorescein-labeled CREBtide peptide substrate (Invitrogen PV3508), 1 mM ATP, and 1 nM enzyme (Invitrogen PV3649) for 2 h at 25° C. Reactions were stopped by addition of 10 μL TR-FRET Dilution Buffer (Invitrogen PV3574) with 30 mM EDTA and 1.5 nM LanthaScreen Tb-CREB pSer133 antibody (Invitrogen PV3566). After 30 min. incubation at room temperature, plates were read on a PHERAstar FS plate reader (BMG Labtech).
# Serine/threonine-protein kinase pim-2, sequence (Q9P1W9 whole entry): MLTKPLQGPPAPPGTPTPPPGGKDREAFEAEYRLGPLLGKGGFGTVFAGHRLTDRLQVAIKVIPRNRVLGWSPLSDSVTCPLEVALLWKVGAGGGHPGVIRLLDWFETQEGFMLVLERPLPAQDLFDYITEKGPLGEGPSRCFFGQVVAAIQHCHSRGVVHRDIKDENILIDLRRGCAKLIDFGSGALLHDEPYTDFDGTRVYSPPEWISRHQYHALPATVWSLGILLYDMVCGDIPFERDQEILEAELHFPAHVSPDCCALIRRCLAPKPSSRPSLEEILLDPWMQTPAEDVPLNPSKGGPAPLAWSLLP
# Serine/threonine-protein kinase pim-1, sequence (P11309 whole entry): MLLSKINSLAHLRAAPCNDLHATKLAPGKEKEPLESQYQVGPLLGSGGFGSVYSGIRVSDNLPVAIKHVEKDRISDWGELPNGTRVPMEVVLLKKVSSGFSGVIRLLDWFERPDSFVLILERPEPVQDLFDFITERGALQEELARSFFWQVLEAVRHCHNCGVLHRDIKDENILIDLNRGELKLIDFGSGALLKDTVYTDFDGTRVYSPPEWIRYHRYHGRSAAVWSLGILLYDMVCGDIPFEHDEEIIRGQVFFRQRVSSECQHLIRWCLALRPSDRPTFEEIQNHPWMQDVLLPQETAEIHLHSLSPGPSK
structure (smiles),measurement,setting,value
C[C@@H]1C[C@H](N)C[C@H](c2ccncc2NC(=O)c2ccc(F)c3cc(-c4c(F)cccc4F)cnc23)C1,IC50,[1],< 0.01 µM
same,IC50,[2],< 0.01 µM
same,IC50,[3],< 0.1 µM
